Experimental data from US8937183B2, “Detection of hydrogen peroxide” (Promega Corporation, priority 2011, dated 2015).

Columns and labels:
[1] = Generation of bioluminescence from luciferin borates upon treatment with hydrogen peroxide (luciferase light reaction); format: biochemical
Method: In this example, luciferin borates were incubated with hydrogen peroxide, and luciferin generation was measured using a light reaction catalyzed by luciferase. An increase in light output (bioluminescence) as a result of treatment of the luciferin borates with hydrogen peroxide indicates generation of luciferin as a result of the reaction with hydrogen peroxide.
1 M phosphate solutions (either 6.8 g of KH2PO4 (Fisher) or 11.4 g of K2HPO4 (Sigma) were dissolved in Nanopure water to 1 M) were diluted 1:5 with Nanopure water to produce 200 mM phosphate solutions. 200 mM phosphate buffers at pH 6.87, 7.41, 7.73, 8.04, and 9.18 were prepared. 4 mg/ml solutions of PBI 3048, 4013, 4424 and 4425 (FIG. 1) in DMSO (Fluka 41641) were made from solid powder.
Into two 96-well white, solid bottom luminometer plates (Promega Z3291) (labeled “A” and “B”), 50 μl of 200 mM phosphate buffer pH 6.87 was added to wells A1-H2; 50 μl of 200 mM phosphate pH 7.41 was added to wells A3-H4; 50 μl of 200 mM phosphate buffer pH 7.73 was added to wells A5-H6; 50 μl of 200 mM phosphate buffer pH 8.04 was added to wells A7-H8; and 50 μl of 200 mM phosphate buffer pH 9.18 was added to wells A9-H10.
50 μl of 4 mg/ml PBI 4013 in DMSO was diluted to 1.25 ml with Nanopure water, and 25 μl added to wells A1-D10 of plate A. 50 μl of 4 mg/ml PBI 4424 was diluted to 1.25 ml with Nanopure water, and 25 μl added to E1-H10 of plate A. 50 μl of 4 mg/ml PBI 3048 was diluted to 1.25 ml with Nanopure water, and 25 μl added to A1-D10 of plate B. 50 μl of 4 mg/ml PBI 4425 was diluted to 1.25 ml with Nanopure water, and 25 μl added to E1-H10 of plate B. 25 μl of Nanopure water was added to rows A and E of both plates. 17 μl of Nanopure water was added to rows B and F of both plates; and 8 μl of Nanopure water was added to rows C and G of both plates
A hydrogen peroxide solution (30% hydrogen peroxide, Sigma H1009-5 ml) was diluted to 60 μM hydrogen peroxide with Nanopure water, and 25 μl of the 60 μM hydrogen peroxide was added to rows D and H of both plates; 17 μl of […] hydrogen peroxide was added to rows C and G of both plates; and 8 μl of […] hydrogen peroxide was added to rows B and F of both plates. Both plates A and B were then gently mixed for 70 minutes.
A bottle of Reconstitution Buffer with Esterase (Promega V144B) was thawed and used to reconstitute a Luciferin Detection Reagent (Promega V859B) to create a reconstituted Luciferin Detection Reagent (“LDR”). 15 ml of 1 M HEPES buffer, pH 7.5 was mixed with 25 ml of the LDR, and 80 μl added to wells A1-H10 of two new luminometer plates (“R1” and “R2”).
Following incubation, 20 μl of the contents of wells A1-H10 of plate A was transferred to the same wells in plate R1, and 20 μl of A1-H10 of plate B was transferred to the same wells in plate R2. Plate R1 and R2 were then incubated at room temperature for 15 minutes, and bioluminescence was measured with a GloMax® luminometer (Promega Corp).
Bioluminescence from duplicate wells was averaged, and the average relative light units (RLUs) from samples containing peroxide were compared to those from the samples not containing peroxide incubated at the same pH (Table 1).

[2] = Background reduction of PBI 4472 with background reduction reagent (TCEP); format: biochemical; conditions: 50 μM, 100 mM Tris base pH 10.4, BRR (TCEP) versus untreated, FIG. 4
Method: PBI 4472 (50 μM) was incubated with assay buffer (100 mM Tris base, pH 10.4) for 15 minutes at room temperature. The samples were then either treated with a background reduction reagent (BRR; TCEP) or remained untreated. After a 15 minute incubation at room temperature, luciferin detection reagent with 1 mM D-cysteine (Promega Corporation) was added to the samples and incubated for 20 minutes at room temperature. Luminescence was detected on a Tecan F500 plate reader.

Compound: O=C(O)C1CSC(c2nc3ccc(OCc4ccc(B(O)O)cc4)cc3s2)=N1 (stereo not shown) [PBI 3048]
- average relative light units (bioluminescence) ([1]; H2O2 0 μM, phosphate buffer pH 6.87, 70 minutes): 392,535 RLU
- average relative light units (bioluminescence) ([1]; H2O2 0 μM, phosphate buffer pH 7.41, 70 minutes): 418,478 RLU
- average relative light units (bioluminescence) ([1]; H2O2 0 μM, phosphate buffer pH 7.73, 70 minutes): 470,830 RLU
- average relative light units (bioluminescence) ([1]; H2O2 0 μM, phosphate buffer pH 8.04, 70 minutes): 561,030 RLU
- average relative light units (bioluminescence) ([1]; H2O2 0 μM, phosphate buffer pH 9.18, 70 minutes): 819,156 RLU
- average relative light units (bioluminescence) ([1]; H2O2 5 μM, phosphate buffer pH 6.87, 70 minutes): 521,375 RLU
- average relative light units (bioluminescence) ([1]; H2O2 5 μM, phosphate buffer pH 7.41, 70 minutes): 794,181 RLU
- average relative light units (bioluminescence) ([1]; H2O2 5 μM, phosphate buffer pH 7.73, 70 minutes): 1,200,842 RLU
- average relative light units (bioluminescence) ([1]; H2O2 5 μM, phosphate buffer pH 8.04, 70 minutes): 1,831,013 RLU
- average relative light units (bioluminescence) ([1]; H2O2 5 μM, phosphate buffer pH 9.18, 70 minutes): 3,834,248 RLU
- average relative light units (bioluminescence) ([1]; H2O2 10 μM, phosphate buffer pH 6.87, 70 minutes): 717,216 RLU
- average relative light units (bioluminescence) ([1]; H2O2 10 μM, phosphate buffer pH 7.41, 70 minutes): 1,302,514 RLU
- average relative light units (bioluminescence) ([1]; H2O2 10 μM, phosphate buffer pH 7.73, 70 minutes): 2,057,780 RLU
- average relative light units (bioluminescence) ([1]; H2O2 10 μM, phosphate buffer pH 8.04, 70 minutes): 3,137,287 RLU
- average relative light units (bioluminescence) ([1]; H2O2 10 μM, phosphate buffer pH 9.18, 70 minutes): 6,426,397 RLU
- average relative light units (bioluminescence) ([1]; H2O2 15 μM, phosphate buffer pH 6.87, 70 minutes): 833,785 RLU
- average relative light units (bioluminescence) ([1]; H2O2 15 μM, phosphate buffer pH 7.41, 70 minutes): 1,709,044 RLU
- average relative light units (bioluminescence) ([1]; H2O2 15 μM, phosphate buffer pH 7.73, 70 minutes): 2,713,251 RLU
- average relative light units (bioluminescence) ([1]; H2O2 15 μM, phosphate buffer pH 8.04, 70 minutes): 4,193,451 RLU
- average relative light units (bioluminescence) ([1]; H2O2 15 μM, phosphate buffer pH 9.18, 70 minutes): 7,447,757 RLU
- light signal increase upon addition of hydrogen peroxide (in words) ([1]; all pH values 6.87 to 9.18): increased strongly

Compound: CC1(C)OB(c2ccc(COc3ccc4nc(C#N)sc4c3)cc2)OC1(C)C [PBI 4472, 6-((4-(4,4,5,5-tetramethyl-1,3,2-dioxaborolan-2-yl)benzyl)oxy)benzo-[d]thiazole-2-carbonitrile]
- background luminescence with reduction reagent (in words) [2]: can reduce background
